Experimental data as given in paper PMC12476087, “Loading of Dicarboxylatoplatinum(II)‐NHC Complexes in Bacterial Ghosts as an Advanced Development in Cancer Therapy” (Archiv Der Pharmazie, 2025).

Legend:
Type in all cases: cell-based
A2780wt cells [1] = test: MTT assay, A2780wt cells; conditions: MTT assay, 72 h exposure
Protocol: (§1) Carboplatin, a second‐generation platinum drug commonly used as part of standard first‐line chemotherapy for ovarian carcinoma, was examined as a reference compound due to its clinical relevance. Additionally, the nonmalignant bone marrow stromal cell line HS‐5 was included as a control to assess specificity of the complexes toward cancer cells.
(§2) Unloaded BGs (4 × 10^8 EcN or 2 × 10^8 Ec NM522, which is equivalent to the highest tested BG concentration) were tested as controls.
(§3) The exponentially growing cells were seeded at a density of 8 × 10^3 cells/well (A2780wt/cis) or 1 × 10^4 cells/well (HS‐5), respectively, into clear flat‐bottom 96‐well plates in triplicates. […] After another 72 h of incubation, the cellular metabolic activity was measured as an indicator of cell viability employing an MTT assay. Hereby, 20 µL of a 5 mg/mL MTT solution was added to each well, respectively. After 3 h of incubation, the medium was discarded, and the formazan crystals formed were dissolved in DMSO for 15 min with gentle shaking. […] The OD at 620 nm was subtracted from the OD at 595 nm. The OD of the medium was subtracted to exclude the unspecific staining caused by FCS‐containing medium. Cells treated with vehicle control (0.1% DMF) only were set at 100% metabolic activity. The IC50 values were calculated with Prism 8.0 (GraphPad Software Inc., Boston, MA, USA) using nonlinear regression. Significance was evaluated via a one sample t‐test performed with Prism 8.0.

A2780wt cells [2] = test: Comet assay (intracellular DNA damage); conditions: 50 µM, 48 h incubation
Protocol: Given that platinum‐based drugs are known to commonly induce DNA damage, a comet assay was conducted using A2780wt cells. This assay detects DNA damage such as DNA single/double strand breaks and DNA fragmentation, a common feature of apoptosis. […] DMF (0.1%)‐treated cells were used as a negative control to establish baseline DNA integrity.
Cellular DNA damage can be visualized by employing a comet assay, which is a single cell gel electrophoresis assay. Hereby, A2780wt cells were seeded at a density of 2 × 10^6 into 25 cm^2 flasks. After letting the cells adhere for 24 h in a humidified atmosphere, the cell culture medium was exchanged for medium containing the respective compound. The cells were then incubated for 48 h with the platinum complexes or 4 h with etoposide, respectively. After incubation, the cell growth was stopped by removing the compound‐containing medium, washing the cells with phosphate‐buffered saline (PBS) and detaching them with a rubber policeman. The detached cells were then centrifuged at 700g for 2 min and the resulting pellet was then washed with 5 mL of PBS. After that, the cells were adjusted to a concentration of 1 × 10^6 cells/mL and were resuspended in ice cold PBS. A total of 75 µL of liquified agarose per condition was transferred onto the slide to create a base layer. This base layer was solidified by transferring the slide to 4°C for 15 min. Afterwards, 10 µL of the above‐mentioned cell suspension in PBS were mixed with 90 µL of agarose. A total of 75 µL of this was added to each base layer, respectively. This layer was also allowed to solidify at 4°C for 15 min. The slide was then transferred to a small basin which contained pre‐chilled lysis buffer (14.6 g NaCl, 20 mL EDTA solution, 10 mL lysis solution, 10 mL DMSO, 60 mL deionized H2O), where it remained for 45 min in the dark at 4°C. The lysis buffer was then aspirated and exchanged with a pre‐chilled alkaline solution (1.2 g NaOH, 0.2 mL EDTA solution, 100 mL deionized H2O), where it remained for further 30 min in the dark at 4°C. The slide was then transferred to a horizontal electrophoresis chamber which was filled with cold alkaline solution. The electrophoresis conditions were set to 1.5 V/cm and 300 mA for 20 min. After the electrophoresis, the slide was transferred into a small basin containing pre‐chilled, deionized H2O. After 2 min, the water was aspirated and this washing step was repeated twice more. After the final rinse, the slide was submerged in 70% ethanol for 5 min. Once the slide has dried, 100 µL of diluted Vista Green DNA Dye was added to each well. After 15 min of incubation, the slides were analyzed on an IX‐70 epifluorescence microscope (Olympus, Shinjuku, Japan) using a FITC filter.

A2780cis cells [3] = test: Annexin V/PI staining and FACS analysis, A2780cis; conditions: reference at 50 µM, 24 h
Protocol: (§4) Therefore, we aimed to evaluate the apoptosis and necrosis inducing potential of complexes 1–4 via a fluorescent‐activated cell sorting (FACS) analysis with Annexin V/propidium iodide (PI) staining in A2780wt and A2780cis cells. Cells were treated for 24 h with both the free and BG‐loaded forms of each compound at 25 µM. Carboplatin (50 µM) served as a reference.
(§5) To evaluate the mode of cell death, a FACS measurement after staining with Annexin V and PI was conducted. First, 0.3 × 10^6 A2780wt or A2780cis cells were seeded into 12‐well plates and were allowed to adhere for 24 h. The compounds were added at 25 µM, either diluted from a freshly prepared DMF stock solution (0.1% DMF) or freshly thawed when loaded in BGs. After 24 h of incubation, the cells were harvested with accutase and washed with PBS. The cells were then resuspended in 200 µL of PBS each and 1 µL of PI solution (Sigma‐Aldrich, Taufkirchen, Germany) and 1 µL of Annexin V‐FITC (MabTag GmbH, Friesoythe, Germany) were added to each sample. These were then incubated for 20 min at rt under light‐protected conditions and afterward transferred onto ice. The percentage of apoptotic cells was determined by analyzing Annexin V positive /PI negative cells using a BD LSRFortessa flow cytometer and BD FACSDiva software (both BD Biosciences, San Jose, CA, USA). The apoptosis analysis included the evaluation of early apoptosis (Annexin V positive/PI negative) and late apoptosis/necrosis (Annexin V positive /PI positive).

HS‐5 cells = test: MTT assay, HS‐5 cells; conditions: 72 h exposure, nonmalignant bone marrow stromal cells
Protocol: as §1
The exponentially growing cells were seeded at a density of 8 × 10^3 cells/well (A2780wt/cis) or 1 × 10^4 cells/well (HS‐5), respectively, into clear flat‐bottom 96‐well plates in triplicates. Following 24 h of incubation for the adherence of the cells at 37°C in a humidified atmosphere (5% CO2/95% air), the test compounds were added. […] For the evaluation of the cell growth inhibition by the compounds loaded in BGs, the BG suspensions were directly diluted in RPMI 1640 to the desired testing concentration (25 µM). After another 72 h of incubation, the cellular metabolic activity was measured as an indicator of cell viability employing an MTT assay. Hereby, 20 µL of a 5 mg/mL MTT solution was added to each well, respectively. After 3 h of incubation, the medium was discarded, and the formazan crystals formed were dissolved in DMSO for 15 min with gentle shaking. Afterward, the optical density (OD) was measured at 595 and 620 nm, respectively on an EnSpire Multimode Plate Reader (revvity, Waltham, MA, USA). The OD at 620 nm was subtracted from the OD at 595 nm. The OD of the medium was subtracted to exclude the unspecific staining caused by FCS‐containing medium. Cells treated with vehicle control (0.1% DMF) only were set at 100% metabolic activity. The IC50 values were calculated with Prism 8.0 (GraphPad Software Inc., Boston, MA, USA) using nonlinear regression. Significance was evaluated via a one sample t‐test performed with Prism 8.0.

A2780wt cells [4] = test: Annexin V/PI staining and FACS analysis, A2780wt; conditions: reference at 50 µM, 24 h
Protocol: as §4, §5

A2780cis cells [5] = test: MTT assay, A2780cis cells
Protocol: as §1, §2, §3

[6] = test system: surface calreticulin on A2780wt cells; test: Immunofluorescent surface calreticulin staining, A2780wt; conditions: oxaliplatin at 1 µM for 24 h
Protocol: (§6) Oxaliplatin, a known metal‐based ICD inducer, was included for comparison.
(§7) A2780wt or A2780cis cells were seeded at a density of 1.2 × 10^5 on cover slips and allowed to adhere for 24 h. […] Subsequently, the cells were washed again three times with PBS and they were incubated after adding the secondary antibody (Alexa‐Fluor‐conjugated anti‐rabbit, 1:200), for 45 min at rt. Subsequently, the cells were washed again three times with PBS and they were mounted on slides with mounting medium. After letting them dry overnight, visualization was performed by spinning disk confocal microscopy. […] Acquired images were background subtracted, individual cells were manually segmented, and fluorescence intensity for the calreticulin staining was quantified with a FIJI software. Two repetitions of the experiment were performed, where at least 20 cells per condition were analyzed and the mean intensity of each sample was calculated, respectively.

[7] = test system: surface calreticulin on A2780cis cells; test: Immunofluorescent surface calreticulin staining, A2780cis; conditions: oxaliplatin at 1 µM for 24 h
Protocol: as §6, §7

SMILES | IC50 (A2780wt cells [1]) | intracellular DNA damage (comet formation) (A2780wt cells [2]) | early apoptosis (A2780cis cells [3]) | late apoptosis/ necrosis (A2780cis cells [3]) | IC50 (HS‐5 cells) | early apoptosis (A2780wt cells [4]) | late apoptosis/ necrosis (A2780wt cells [4]) | Resistance factor RF = IC50(A2780cis)/IC50(A2780wt) (A2780cis cells [5]; 72 h) | IC50 (A2780cis cells [5]; 72 h exposure) | x‐fold intensity of surface calreticulin compared to untreated cells [6] | x‐fold intensity of surface calreticulin compared to untreated cells [7]
[NH2][Pt]1([NH2])[O]C(=O)C2(CCC2)C(=O)[O]1 [Carboplatin, (SP‐4‐2)‐diammine(1,1‐cyclobutanedicarboxylato)platinum(II), reference compound] | 33.6 ± 2.1 µM | did not show any evidence of comet formation | 6.47 ± 1.75 | 12.6 ± 1.17 | 24.4 ± 0.99 µM | 7.90 ± 0.29 | 16.8 ± 0.69 | 3.1 | 104 ± 11.5 µM | – | –
O=C1[O][Pt]2([NH][C@@H]3CCCC[C@H]3[NH]2)[O]C1=O [oxaliplatin, (SP‐4‐2)‐(1R,2R‐diaminocyclohexane)oxalatoplatinum(II), reference compound] | – | – | – | – | – | – | – | – | – | 0.86 ± 0.24 x‐fold | 1.36 ± 0.24 x‐fold
